Test results: patent US20050020544A1, “Bicyclic CB2 cannabinoid receptor ligands” (priority 2002, published 2005)
Where two headings read alike, the source gives them in different places.

Tests used:
[1] = target: T1, human CB1 receptor (Homo sapiens, UniProt P21554); experiment: biochemical; assay type: binding
T1 construct: purchased Perkin Elmer/NEN; host or cells: HEK-293 cells, stably transfected (membranes)
Outline: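 Displacement of [3H]CP55940 from membranes of HEK-293 cells stably expressing human CB1, in 50 mM Tris-HCl, 2.5 mM EDTA, 5 mM MgCl2, 1 mg/ml BSA, pH 7.4, 0.1% DMSO; 1.5 h at 30° C, then filtration.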

[2] = target: human CB2 receptor (Homo sapiens, UniProt P34972); experiment: Adenylylcyclase assay: forskolin-activated cAMP in CB2 transfected HEK-293 cells; assay type: cell-based; conditions: for inhibition at 1 µM: HEK293, read-out: % inhibition at 1 μM
Sequence of human CB2 receptor (P34972 whole entry): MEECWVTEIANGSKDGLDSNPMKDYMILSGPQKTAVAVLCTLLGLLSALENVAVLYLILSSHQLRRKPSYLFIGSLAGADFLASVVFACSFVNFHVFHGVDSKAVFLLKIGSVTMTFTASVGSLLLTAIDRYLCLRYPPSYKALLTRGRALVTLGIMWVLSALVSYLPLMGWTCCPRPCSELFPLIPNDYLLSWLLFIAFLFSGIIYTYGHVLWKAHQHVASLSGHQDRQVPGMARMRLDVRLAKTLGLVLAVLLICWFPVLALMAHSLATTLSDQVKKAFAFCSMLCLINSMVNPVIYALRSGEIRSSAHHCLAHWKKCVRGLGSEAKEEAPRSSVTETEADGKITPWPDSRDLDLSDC
Procedure: Cannabinoids and derivatives bind to G-protein-coupled CB1 and CB2 receptors and exert their activity via the inhibition of adenylylcyclase activity. An adenylylcyclase assay forms a basis for the functional analysis of the compounds by determining their capacity to inhibit or promote forskolin-activated cAMP production. The assay is carried out according to Chin et al. (Chin, C. N. et al., J. Neurochem. 70: 366-73, 1998). Briefly, HEK-293 human kidney cells (ATCC#CRL-1573) stably transfected with either the human CB1 or CB2 receptor (cDNA) were grown in DMEM supplemented with 10% fetal calf serum, 1% Penicillin-Streptomycin and 2 mM L-glutamine. Cells were seeded in 24 wells plate at 5×10^4 cells/well and incubated for 48 hours. Medium was then removed and the adherent cells were washed with PBS. Two hundred μl of serum free medium supplemented with 0.2 mM Ro 20-1724, 0.25% BSA, and 20 mM HEPES was then added to each well. The cells were then activated with 1 μM forskolin in presence of the bicyclic test compounds in concentrations ranging from 10 pM up to 1 μM. The activated cells were then incubated at 37° C. for 20 minutes and the reaction terminated with 1.2 M HCl to a final concentration of 0.1 M. Cells were lyzed by freeze and thaw and the lysate was neutralized with 2 M HEPES, pH 7.5. cAMP was measured in 50 μl aliquots using the [^3H]-cAMP assay system (Amersham).
This experiment was first performed on CB2 receptor transfected cells.

[3] = test system: Male Sprague Dawley rats; experiment: Inflammatory pain: carrageenan paw edema in rats, thermal and mechanical stimuli; assay type: in vivo, rat; conditions: for ΔForce (tactile stimulus) / ΔLT (thermal stimulus): three hours
Outline: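 Male Sprague Dawley rats (~200 g) with carrageenan-inflamed paw, tested before and 3 h after injection. Thermal withdrawal latency measured by Hargreaves plantar test at intensity 50, and mechanical threshold by dynamic plantar aesthesiometer. Values are inflamed minus non-inflamed paw differences at 0 and 3 h (ΔLT, ΔForce).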

[4] = test system: TNF-α secretion from activated RAW 264.7 macrophages; experiment: Inhibition of TNF-α in LPS activated macrophages (ELISA); assay type: cell-based, mouse; conditions: for effect on TNF-α secretion: doses up to 20 μM
Source text: The technique used to quantify the amount of a given protein in a liquid sample, either tissue culture supernatant or body fluid, is based on Enzyme Linked ImmunoSorbent Assay (ELISA) methodology. Either commercially available or established in house, the assay is based on the capture of the protein of interest by specific antibodies bound to the bottom of an ELISA plate well. Unbound material is washed away, the captured protein is then exposed to a secondary antibody generally labeled with horseradish peroxidase (HRP) or alkaline phosphatase (ALP). Again the unbound material is washed away, the samples are then incubated with the appropriate substrate yielding a calorimetric reaction. The reaction is stopped and reading is performed in a spectrophotometer at the appropriate wavelength. Samples are tested at least in duplicate and the appropriate standard curve, consisting of serial dilutions of the recombinant target protein, is incorporated on each plate. Concentration of the protein in the sample is calculated from the standard curve.
RAW 264.7 macrophages, a mouse cell line (ATCC # TIB-71), were grown in Dulbecco's modified Eagle's medium (DMEM) with 4 mM L-glutamine adjusted to contain 1.5 g/L sodium bicarbonate, 4.5 g/L glucose, and 10% heat inactivated fetal bovine serum. Cells were grown in tissue culture flasks and seeded at appropriate density into 24 wells tissue culture plates. 0.5×10^6 Raw cells in one milliliter were stimulated with 2 μg/ml Lipopolysaccharide E. coli 055:B5 (DIFCO Laboratories). The mouse macrophages were pre-treated for one hour with controls or 10 μM of bicyclic CB2 ligands and later on activated with LPS. Dexamethasone was used as a positive control at 50 nM. Supernatant was collected 4 hours (for PGE2) and 24 hours (for IL-1β and TNF-α) after activation, and the levels of the inflammatory agent under study were determined by ELISA, as previously described. Inhibition was calculated versus vehicle treated cells.
The activation of the macrophages is performed as previously described. The levels of TNF-α are measured in an ELISA assay as previously described. Inhibition is calculated versus vehicle treated cells.

[5] = CB2 receptor transfected HEK-293, 1 μM forskolin
[6] = displacement of [3H]CP55940, hCB1 HEK-293 membranes, read-out: CB1 IC50
[7] = CB2 receptor transfected HEK-293, 1 μM forskolin, read-out: IC50 inhibition of cAMP level

T1 sequence (P21554 whole entry): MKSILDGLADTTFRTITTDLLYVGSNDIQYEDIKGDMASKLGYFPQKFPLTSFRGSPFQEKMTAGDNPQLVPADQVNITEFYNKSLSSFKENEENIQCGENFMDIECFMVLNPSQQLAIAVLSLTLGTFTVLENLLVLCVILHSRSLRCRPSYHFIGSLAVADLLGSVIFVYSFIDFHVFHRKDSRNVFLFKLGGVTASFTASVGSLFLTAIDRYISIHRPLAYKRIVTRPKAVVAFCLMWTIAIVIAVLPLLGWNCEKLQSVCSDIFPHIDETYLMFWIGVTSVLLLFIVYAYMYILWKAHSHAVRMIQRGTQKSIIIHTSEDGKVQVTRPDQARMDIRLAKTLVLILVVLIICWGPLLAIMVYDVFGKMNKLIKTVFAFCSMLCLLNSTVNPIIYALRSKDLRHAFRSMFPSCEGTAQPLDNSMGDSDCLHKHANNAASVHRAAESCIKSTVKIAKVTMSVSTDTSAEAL

Row | Compound | inhibition at 1 µM [2, 5] | IC50 [1, 6] | effect on TNF-α secretion [4] | IC50 [2, 7] | other results
1 | CCCCCCC(C)(C)c1cc(OC)c(C2C=C(CO)C3CC2C3(C)C)c(OC)c1 (single isomer, unassigned; (+)) [HU-308, (+) {4-[4-(1,1-dimethylheptyl)-2,6-dimethoxy-phenyl]-6,6-dimethyl-bicyclo[3.1.1]hept-2-en-2-yl}-methanol, reference compound] |  |  |  |  | IC50 ([1]; CB1 IC50, displacement of [3H]CP55940, hCB1 HEK-293 membranes): 3600 nM
2 | CCCCCCC(C)(C)c1cc(O)c(C2CC(=O)C3CC2C3(C)C)c(O)c1 (single isomer, unassigned; (-)) [Compound A, (−)-4-[4-(1,1-Dimethyl-heptyl)2,6-dihydroxy-phenyl]-6,6-dimethyl-bicyclo[3.1.1)heptan-2-one] | 63% | 27.6 nM |  |  | IC50 [2]: 0.24 nM; ΔForce (tactile stimulus) ([3]; 8 mg/kg i.p.): 2 g; ΔLT (thermal stimulus) ([3]; 8 mg/kg i.p.): 1.5 s; reduction of TNF-α secretion ([4]; 10 μM): 53%; IC50 ([4]; Mus musculus, RAW264.7): 10000 nM
3 | CCCCC(C)(C)c1cc(O)c(C2CC(=O)C3CC2C3(C)C)c(O)c1 (single isomer, unassigned; (-)) [Compound L, (−)-4-[4(1,1-Dimethyl-pentyl)-2,6-dihydroxy-phenyl]-6,6-dimethyl-bicyclo[3.1.1]heptan-2-one] | 33% | 446 nM | none of them did significantly affect TNF-α secretion |  | ΔForce (tactile stimulus) ([3]; 2 mg/kg i.p.): 11 g
4 | CCCCC(C)(C)c1cc(O)c(C2CC(=O)C3CC2C3(C)C)c(OC(=O)CCC(=O)O)c1 (single isomer, unassigned; (-)) [Compound Y, (−)-4-{4-[1,1-Dimethyl-pentyl]-2-succinate-6-hydroxy-phenyl}-6,6-dimethyl-bicyclo[3.1.1]heptan-2-one] |  | 315 nM | none of them did significantly affect TNF-α secretion | 1.13 nM | % inhibition at 1 μM [2, 5]: 60%
5 | CCCCCCC(C)(C)c1cc(O)c([C@H]2CC(=O)[C@H]3C[C@@H]2C3(C)C)c(OC(=O)CCC(=O)O)c1 [Compound R, (−)-4-{4-[1,1-Dimethyl-heptyl]-2-succinate-6-hydroxy-phenyl}-6,6-dimethyl-bicyclo[3.1.1]heptan-2-one] | 64% | 41 nM | none of them did significantly affect TNF-α secretion | 0.47 nM | reversal of analgesic activity against thermal and mechanical stimuli by antagonists ([3]; 5 mg/kg i.p. SR141716A or SR144528, 15 minutes before carrageenan and compound): not reversed by any of the antagonists; ΔForce (tactile stimulus) ([3]; 10 mg/kg i.p.): 4 g; ΔLT (thermal stimulus) ([3]; 10 mg/kg i.p.): 0 s
